Source: ChEMBL document CHEMBL2380262, “Pyrrolidine analogs of GZ-793A: synthesis and evaluation as inhibitors of the vesicular monoamine transporter-2 (VMAT2)” (Bioorg Med Chem Lett, 2013)

Columns and labels:
[1] = target: T1, Synaptic vesicular amine transporter (Rattus norvegicus, UniProt Q01827); test: Inhibition of VMAT2-mediated [3H]DA uptake in rat striatal synaptic vesicles by liquid scintillation spectroscopic analysis
[2] = target: T1, Synaptic vesicular amine transporter; test: Displacement of [3H]DTBZ from VMAT2 in Sprague-Dawley rat synaptic vesicle membranes after 30 mins by scintillation counting analysis; format: cell membranes, Membrane

T1 sequence (Q01827 whole entry): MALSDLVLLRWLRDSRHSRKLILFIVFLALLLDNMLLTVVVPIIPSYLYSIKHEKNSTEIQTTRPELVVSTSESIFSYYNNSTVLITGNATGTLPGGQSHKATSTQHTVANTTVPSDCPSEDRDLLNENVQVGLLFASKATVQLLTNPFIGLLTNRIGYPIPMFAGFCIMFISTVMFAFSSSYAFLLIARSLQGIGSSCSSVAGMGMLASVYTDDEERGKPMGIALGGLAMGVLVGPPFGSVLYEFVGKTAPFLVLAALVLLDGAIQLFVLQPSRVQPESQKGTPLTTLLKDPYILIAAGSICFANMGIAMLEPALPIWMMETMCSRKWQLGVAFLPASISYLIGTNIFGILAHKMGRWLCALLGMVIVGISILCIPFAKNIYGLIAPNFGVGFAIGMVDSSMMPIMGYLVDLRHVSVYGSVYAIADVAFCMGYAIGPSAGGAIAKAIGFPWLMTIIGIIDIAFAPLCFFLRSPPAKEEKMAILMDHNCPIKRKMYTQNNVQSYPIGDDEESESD

Row | SMILES | Ki [1] | Ki [2]
1 | OC[C@H](O)CN1[C@H](CCc2ccccc2)CC[C@@H]1CCc1ccccc1 | 279 nM | 5910 nM
2 | COc1ccc(CC[C@@H]2CC[C@H](CCc3ccc(OC)cc3)N2C[C@@H](O)CO)cc1 | 49 nM | 3940 nM
3 | OC[C@H](O)CN1[C@H](CCc2ccc3c(c2)OCO3)CC[C@@H]1CCc1ccc2c(c1)OCO2 | 269 nM | 8470 nM

More lines, in order of falling Ki [1], values ahead:

Row | Ki [1] | Ki [2] | SMILES
4 | 3780 nM | > 100000 nM | COc1ccc(CC[C@@H]2CC[C@H](CCc3ccc(OC)c(OC)c3)N2C[C@@H](O)CO)cc1OC
5 | 270 nM | 2350 nM | COc1ccccc1CC[C@@H]1CC[C@H](CCc2ccccc2OC)N1C[C@@H](O)CO
